{"source": "patent US8017144B2", "about": "“Controlled release polymeric compositions of bone growth promoting compounds” (Pfizer Inc., priority 2001, dated 2011)", "key": {"[1]": {"tested_on": "right femoral fracture", "test": "Rat femoral transverse fracture model", "type": "in vivo, Male Sprague-Dawley rats", "details": "single percutaneous injection to fracture site immediately after surgery; 50 mg/ml, 300 ul, 15 mg/rat; day 21", "protocol": "Male Sprague-Dawley rats at 3 to 4 months of age were used. The animals were anesthetized with ketamine and xylazine at doses of 100 and 10 mg/kg, respectively. The right hindlimb of each rat was shaved and cleaned. A 1 cm incision was made just lateral to the patella and the femoral condyle was exposed. A Kirschner wire (0.045″ in diameter) was introduced into the intramedullary canal through the intercondylar portion to serve as an internal stabilization. The muscle incision was closed with Vicryl® and the skin incision was closed with stainless steel wound clips. The mid-diaphysis of the pinned femur was fractured by means of a three-point bending device driven by a dropped weight. The rats were permitted full weight-bearing and unrestricted activity after awakening from anesthesia. The test agents were administered on various days after surgery by percutaneous injection onto the fracture site. The animals were sacrificed on various days after treatment and the femurs were collected for analysis. Fracture healing was evaluated by using radiography, histomorphometry and biomechanical test. (See, e.g., F. Bonnarens and T. A. Einhorn, “Production of a standard closed fracture in laboratory animal bone,” Journal of Orthopaedic Research 2:97-101 (1984).)\nMale Sprague-Dawley rats at 3 to 4 months of age were subjected to right femoral fracture. […]"}, "[2]": {"tested_on": "subperiosteum of the femur", "test": "Rat periosteal injection model", "type": "in vivo, Male Sprague-Dawley rats", "details": "single injection in a polymer formulation, day 15", "protocol": "Male Sprague-Dawley rats at 3 weeks of age were used. The rats were anesthetized with isoflurane inhalation ([…]) in a conduction chamber located in a fume hood. The right hindlimb of each rat was shaved and cleaned. A 25 G needle attached with a Hamilton syringe pre-filled with testing solution was used for the local injection. The solution was injected onto the subperiosteum of the anterior, mid-diaphyseal region of femur in a volume of 5 to 10 ul for various days. On day 15, the rats were sacrificed and the femurs were collected for analysis. (See, e.g., M. E. Joyce, A. B. Roberts, M. B. Sporn and M. Bolander, “Transforming growth factor-β and the initiation of chondrogenesis and osteogenesis in the rat femur,” The Journal of Cell Biology 110:2195-2207 (1990).) On day one, the right femurs of male Sprague-Dawley rats received single injection of vehicle or test compound in a polymer formulation. The test compound was the sodium salt of (3-(((4-tert-butyl-benzyl)-(pyridine-3-sulfonyl)-amino)-methyl)-phenoxy)-acetic acid. On day 15, all rats were sacrificed and the right femurs were collected for analysis. Periosteal bone induction was assessed by using radiography and dual-energy X-ray absorptiometry (DEXA)."}, "[3]": {"tested_on": "1.5 cm segmental defect in the midulna", "test": "Dog ulnar segmental defect model", "type": "in vivo, dogs", "excerpt": "The ulnar segmental defect model was used to test the efficacy of a single dose of the test compound (which was the sodium salt of (3-(((4-tert-butyl-benzyl)-(pyridine-3-sulfonyl)-amino)-methyl)-phenoxy)-acetic acid) in a PLGH formulation ([…]). The protocol was modified as follows: With animals under general anesthesia, the foreleg was prepped and draped in sterile fashion. A lateral incision approximately 10 cm in length was made and the ulna was exposed extraperiostally. Periosteum was cut and moved to the proximal and distal parts of the incision. Then a 1.5 cm segmental defect was made in the midulna using a pendular saw. The radius and the remaining interosseal membrane were left intact. The defect site was irrigated with saline to remove bone debris. The site was then filled with test compound in a slow-release matrix formulation, as described above. The dogs were divided into the following groups.\nRadiographs of the forelimbs were obtained immediately following surgery and every two weeks thereafter until the termination of the study. Radiographs were graded on a 0 to 6 scale (Table 2)."}, "[4]": {"tested_on": "osteotomy on the distal portion of the dog tibia", "test": "Canine tibial osteotomy model", "type": "in vivo, Beagle male dogs", "details": "RG502H/NMP, 8 weeks, sodium salt", "excerpt": "Normal fracture healing usually represents a biologically optimum healing process, as a result detecting an acceleration of healing in pre-clinical models that heal rapidly is both difficult and challenging. The test compound (which was the sodium salt of (3-(((4-tert-butyl-benzyl)-(pyridine-3-sulfonyl)-amino)-methyl)-phenoxy)-acetic acid) in a PLGH formulation (50% 50:50 PLGH (RG502H Grade)/50% NMP) was studied to determine its effect on accelerating healing in a rapidly healing canine osteotomy model. Enhancement of healing in this model supports potential applications of the test compound to heal normal fractures in humans since humans tend to heal fractures more slowly.\nBeagle male dogs 12±3 kg, 14 months of age were used for the study. Dogs were divided into four groups of three to four animals each.\nWith animals under general anesthesia, the hindleg was prepped and draped in sterile fashion. A lateral incision approximately 4 cm in length was made. Surgical osteotomy was made on the distal portion of the dog tibia using a Gigli saw. The defect was stabilized using an AO plate. The fibula and the remaining interosseal membrane was left intact and the defect site was irrigated with saline to remove bone debris. The site was then filled with carrier as described above. Following surgery, animals were allowed full weight-bearing activity, and water and food ad libitum. […]"}}, "note": "Values joined by “and” are separate entries in the source; they are usually repeats but may differ in a detail not shown here. Equal entries are not always repeated."}
{"smiles": "CC(C)(C)c1ccc(CN(Cc2cccc(OCC(=O)[O-])c2)S(=O)(=O)c2cccnc2)cc1.[Na+]", "note": "[test compound, (3-(((4-tert-butyl-benzyl)-(pyridine-3-sulfonyl)-amino)-methyl)-phenoxy)-acetic acid, sodium salt]", "values": [{"measurement": "calluses as assessed by radiography vs vehicle", "setting": "[1]", "result": "larger and denser calluses"}, {"measurement": "bone mineral content (BMC) of the injected region of the femur by DEXA vs vehicle", "setting": "[2]", "result": "significantly increased"}, {"measurement": "periosteal bone induction by radiography", "setting": "[2]; anterior aspect of right femur", "result": "new bone formation"}, {"measurement": "efficacy in formulation containing RG503H Grade", "setting": "[3]; 50 mg/ml in 50% 50:50 PLGH (RG503H Grade)/50% NMP", "result": "did not work well"}, {"measurement": "union compared to RG502H Grade formulation", "setting": "[3]; 50 mg/ml in 50% 50:50 PLGH (RG503H Grade)/50% NMP, union achieved in some dogs", "result": "delayed"}, {"measurement": "treated animals healed, overall", "setting": "[3]; all treated groups vs none for vehicle controls", "result": "70-75%"}, {"measurement": "remodeling of newly formed bone", "setting": "[3]; by week 24, slow release matrix formulation RG502H/NMP", "result": "remodeled back to the same shape and size as the contralateral bone"}, {"measurement": "Complete rebridging/number of dogs", "setting": "[3]; group B: 50 mg (1 ml of 50 mg/ml formulation), RG502H/NMP", "result": "2/4"}, {"measurement": "Complete rebridging/number of dogs", "setting": "[3]; group C: 10 mg (1 ml of 10 mg/ml formulation), RG502H/NMP", "result": "9/12"}, {"measurement": "Radiographic response", "setting": "[3]; group C: 10 mg (1 ml of 10 mg/ml formulation), RG502H/NMP, two dogs", "result": "did not respond."}, {"measurement": "Complete rebridging/number of dogs", "setting": "[3]; group D: 10 mg (0.2 ml of 50 mg/ml formulation), RG502H/NMP", "result": "3/4"}, {"measurement": "rebridgement of defect after a single application", "setting": "[3]; groups B, C and D, slow release matrix formulation RG502H/NMP", "result": "complete rebridgement"}, {"measurement": "Rebridging/number of dogs", "setting": "[4]; group C: 5 mg (0.5 ml of 10 mg/ml formulation)", "result": "Four out of four and 4/4"}, {"measurement": "Rebridging/number of dogs", "setting": "[4]; group D: 25 mg (0.5 ml of 50 mg/ml formulation)", "result": "the other three showed significant healing and 3/4"}]}
